Test results reported in patent US4954358A, “Multiplication inhibitor for Bacillus cereus” (priority 1986, dated 1990).

Tests used:
Format in all cases: cell-based
Bacillus cereus [1] = experiment: MIC, agar plate dilution method on standard nutrient agar; conditions: for minimum growth inhibiting concentration (MIC): Bacillus cereus spores, 37° C., 24 hours, judged with the naked eye; for growth inhibition effect against Bacillus cereus: standard nutrient agar, result in words
Method: (§1) The minimum growth inhibiting concentration (MIC) of various antibacterial substances against Bacillus cereus and other general putrefying bacteria were measured by using a standard nutrient agar (made by Difco Corp.) and by introducing the agar plate dilution method.
(§2) On a plain culture medium on which chemicals were placed in a stepwise dilution system the liquid spore suspension (×10^8 /ml) with respect to the strains of the genus of Bacillus and the respective pre-culture mediums (37° C., 24 hours) provided by Brain Heart Infusion Broth with respect to the other strains were smeared.

Bacillus coaglans = experiment: as above; conditions: Bacillus coaglans spores, 37° C., 24 hours
Method: as §1, §2

Bacillus licheniformis = experiment: as above; conditions: Bacillus licheniformis spores, 37° C., 24 hours
Method: as §1, §2

Bacillus megaterium = experiment: as above; conditions: Bacillus megaterium spores, 37° C., 24 hours
Method: as §1, §2

Bacillus subtilis = experiment: as above; conditions: Bacillus subtilis spores, 37° C., 24 hours
Method: as §1, §2

Lactobacillus casei = experiment: as above; conditions: 37° C., 24 hours
Method: as §1, §2

[2] = tested on: Leuconostoc mesenteroides; experiment: as above; conditions: 37° C., 24 hours
Method: as §1, §2

Staphylococcus aureus = experiment: as above; conditions: 37° C., 24 hours
Method: as §1, §2

Streptococcus faecalis = experiment: as above; conditions: 37° C., 24 hours
Method: as §1, §2

total viable bacteria = experiment: Keeping test, cooked rice not contaminated with Bacillus cereus, 30° C.; conditions: time without smell of putrefaction or change in outward appearance
Bacillus cereus [3] = experiment: Keeping test, cooked rice contaminated with Bacillus cereus, 30° C.; conditions: for Effective keeping time: cooked rice contaminated with Bacillus cereus, 30° C., time until Bacillus cereus 10^6 /g or more; for effectiveness against Bacillus cereus in tests with actual food: cooked rice (Example 4), result in words
Method: Two hundred grams of polished rice was washed in water, and with the addition of 240 ml of water, it was cooked for approximately 15 minutes in an electric rice-cooker which was of the type in public use. The rice cooked was left standing in hot steam for 10 minutes, and then left to cool off at room temperature. On the other hand, a suspension of spores of Bacillus cereus was prepared and added to the cooked rice, which had cooled off, in the proportion of n×10^2 to 1 g final specimen. Specimens were prepared by mixing the rice evenly with addition of the spores.
The cooked rice was put in a plastic case for each 120 g and its temperature was maintained at 30° C., and the number of total viable bacteria and the number of Bacillus cereus were measured periodically using a standard agar culture medium (37° C., 48 hours) and a polymyxin BCW agar culture medium with 5% egg yellow (37° C., 24 hours) for each In parallel with this measurement of the bacterium number, the specimens were examined concerning the outward appearance and the possible smell of putrefaction.
Each of the chemicals shown in Table 4 was dissolved in 20 ml of water to form an aqueous solution of a set concentration.

[4] = tested on: total viable active bacteria; experiment: Keeping test, potato salad not contaminated with Bacillus cereus, 30° C.; conditions: time without smell of putrefaction or change in outward appearance
Method: (§3) Potato salad was prepared according to the following recipe.
(§4) Mayonnaise in the proportion of 10% by weight against the above materials was combined with various chemicals of prescribed concentrations listed in Table 5 and these were evenly mixed with the above food materials. Mixed specimens were prepared by inoculating Bacillus cereus in the form of a spore suspension in such a way as to make the bacterial number n×10^2 per gram on the final specimen.
(§5) The potato salad thus prepared was packed into plastic containers and left standing at 30° C. The bacterial number of total viable active bacteria and that of Bacillus cereus were measured with respect to the changes with time by the same method as in Example 1.
(§6) The effective keeping time and the figures in the upper and the lower spaces for each chemical in the list are used in the same meanings as in Example 4.

Bacillus cereus [5] = experiment: Keeping test, potato salad contaminated with Bacillus cereus, 30° C.; conditions: time until Bacillus cereus 10^6 /g or more
Method: as §3, §4
The same Bacillus cereus as in Example 1 was employed for this example.
as §5, §6

Row | Compound | minimum growth inhibiting concentration (MIC) (Bacillus cereus [1]) [%] | growth inhibition effect against Bacillus cereus (Bacillus cereus [1]) | minimum growth inhibiting concentration (MIC) (Bacillus coaglans) [%] | minimum growth inhibiting concentration (MIC) (Bacillus licheniformis) [%] | minimum growth inhibiting concentration (MIC) (Bacillus megaterium) [%] | minimum growth inhibiting concentration (MIC) (Bacillus subtilis) [%] | minimum growth inhibiting concentration (MIC) (Lactobacillus casei) [%] | minimum growth inhibiting concentration (MIC) [2] [%] | minimum growth inhibiting concentration (MIC) (Staphylococcus aureus) [%] | minimum growth inhibiting concentration (MIC) (Streptococcus faecalis) [%] | also measured
1 | CCCCCCCCCC(=O)OCC(O)CO (stereo not drawn) [Capric acid monoglyceride] | 0.01 | showed effectiveness | 0.01 | 0.01 | 0.01 | 0.01 | – | – | – | – | minimum growth inhibiting concentration (MIC) (Lactobacillus casei; in %): 0.025; minimum growth inhibiting concentration (MIC) ([2]; in %): 0.025; minimum growth inhibiting concentration (MIC) (Staphylococcus aureus; in %): 0.025; minimum growth inhibiting concentration (MIC) (Streptococcus faecalis; in %): 0.025; Effective keeping time (total viable bacteria; chemical 0.01% by weight): 35.0 h; Effective keeping time (Bacillus cereus [3]; chemical 0.01% by weight): 8.4 h
2 | CCO [Ethyl alcohol] | – | – | – | – | – | – | – | – | – | – | Effective keeping time ([4]; chemical 1% by weight): 29.2 h; Effective keeping time (Bacillus cereus [5]; chemical 1% by weight): 10.0 h
3 | NCC(=O)O [Glycine] | > 8 | – | 1 | 2 | 1 | 1 | 4 | 4 | 5 | 4 | Effective keeping time (total viable bacteria; chemical 1% by weight): 110.0 h; effectiveness against Bacillus cereus in tests with actual food (Bacillus cereus [3]): proved effective, though the effect is of no practical value; Effective keeping time (Bacillus cereus [3]; chemical 1% by weight): 10.1 h; Effective keeping time ([4]; chemical 1% by weight): 36.0 h; Effective keeping time (Bacillus cereus [5]; chemical 1% by weight): 12.0 h
4 | CCCCCCCCCCCC(=O)OCC(O)CO (stereo not drawn) [Lauric acid monoglyceride] | – | showed effectiveness | – | – | – | – | 0.01 | 0.01 | 0.01 | 0.01 | minimum growth inhibiting concentration (MIC) (Bacillus cereus [1]; in %): 0.0025; minimum growth inhibiting concentration (MIC) (Bacillus coaglans; in %): 0.0025; minimum growth inhibiting concentration (MIC) (Bacillus licheniformis; in %): 0.0025; minimum growth inhibiting concentration (MIC) (Bacillus megaterium; in %): 0.0025; minimum growth inhibiting concentration (MIC) (Bacillus subtilis; in %): 0.0025; Effective keeping time (total viable bacteria; chemical 0.01% by weight): 40.0 h; Effective keeping time (Bacillus cereus [3]; chemical 0.01% by weight): 8.2 h; Effective keeping time ([4]; chemical 0.01% by weight): 22.0 h; Effective keeping time (Bacillus cereus [5]; chemical 0.01% by weight): 11.5 h
5 | CC(=O)[O-].[Na+] [Sodium acetate] | > 0.5 | – | > 0.5 | > 0.5 | > 0.5 | > 0.5 | > 0.5 | > 0.5 | > 0.5 | > 0.5 | Effective keeping time (total viable bacteria; chemical 0.4% by weight): 43.0 h; effectiveness against Bacillus cereus in tests with actual food (Bacillus cereus [3]): proved effective, though the effect is of no practical value; Effective keeping time (Bacillus cereus [3]; chemical 0.4% by weight): 11.5 h; Effective keeping time ([4]; chemical 0.4% by weight): 27.0 h; Effective keeping time (Bacillus cereus [5]; chemical 0.4% by weight): 10.0 h
6 | O=P1([O-])OP(=O)([O-])OP(=O)([O-])OP(=O)([O-])OP(=O)([O-])OP(=O)([O-])O1.[Na+].[Na+].[Na+].[Na+].[Na+].[Na+] [Sodium hexametaphosphate] | – | showed effectiveness | – | – | – | – | – | – | – | – | minimum growth inhibiting concentration (MIC) (Bacillus cereus [1]; in %): 0.125; minimum growth inhibiting concentration (MIC) (Bacillus coaglans; in %): 0.125; minimum growth inhibiting concentration (MIC) (Bacillus licheniformis; in %): 0.125; minimum growth inhibiting concentration (MIC) (Bacillus megaterium; in %): 0.125; minimum growth inhibiting concentration (MIC) (Bacillus subtilis; in %): 0.125; minimum growth inhibiting concentration (MIC) (Lactobacillus casei; in %): 0.125; minimum growth inhibiting concentration (MIC) ([2]; in %): 0.125; minimum growth inhibiting concentration (MIC) (Staphylococcus aureus; in %): 0.125; minimum growth inhibiting concentration (MIC) (Streptococcus faecalis; in %): 0.125; Effective keeping time (total viable bacteria; chemical 0.5% by weight): 35.0 h; Effective keeping time (Bacillus cereus [3]; chemical 0.5% by weight): 9.2 h
7 | O=P([O-])([O-])OP(=O)([O-])[O-].[Na+].[Na+].[Na+].[Na+] [Sodium pyrophosphate] | > 0.5 | – | > 0.5 | > 0.5 | > 0.5 | > 0.5 | > 0.5 | > 0.5 | > 0.5 | > 0.5 | Effective keeping time (total viable bacteria; chemical 0.5% by weight): 35.0 h; Effective keeping time (Bacillus cereus [3]; chemical 0.5% by weight): 8.6 h
8 | C/C=C/C=C/C(=O)O [Sorbic acid] | – | – | – | – | – | – | – | – | – | – | Effective keeping time ([4]; chemical 0.1% by weight): 96.0 h; Effective keeping time (Bacillus cereus [5]; chemical 0.1% by weight): 38.6 h
9 | O=C([O-])c1ccccc1.[Na+] [sodium benzoate] | – | – | – | – | – | – | – | – | – | – | Effective keeping time ([4]; chemical 0.1% by weight): 92.0 h; Effective keeping time (Bacillus cereus [5]; chemical 0.1% by weight): 36.2 h
10 | Caprylic acid monoglyceride | 0.05 | showed effectiveness | 0.05 | 0.05 | 0.05 | 0.05 | 0.05 | 0.05 | 0.1 | 0.05 | Effective keeping time (total viable bacteria; chemical 0.05% by weight): 35.0 h; Effective keeping time (Bacillus cereus [3]; chemical 0.05% by weight): 8.6 h
11 | Lysozyme | > 0.05 | – | 0.05 | > 0.05 | 0.05 | 0.02 | > 0.05 | > 0.05 | > 0.05 | > 0.05 | Effective keeping time (total viable bacteria; chemical 0.05% by weight): 35.0 h; Effective keeping time (Bacillus cereus [3]; chemical 0.05% by weight): 8.5 h
12 | Sodium polyphosphate | 0.5 | showed effectiveness | 0.5 | – | – | – | 0.5 | 0.5 | 0.5 | 0.5 | minimum growth inhibiting concentration (MIC) (Bacillus licheniformis; in %): 0.025; minimum growth inhibiting concentration (MIC) (Bacillus megaterium; in %): 0.025; minimum growth inhibiting concentration (MIC) (Bacillus subtilis; in %): 0.025; Effective keeping time (total viable bacteria; chemical 0.5% by weight): 35.0 h; Effective keeping time (Bacillus cereus [3]; chemical 0.5% by weight): 9.0 h
13 | protamine | – | showed effectiveness | – | – | – | – | – | – | – | – | effectiveness against Bacillus cereus in tests with actual food (Bacillus cereus [3]): only protamine has proved to be effective
14 | protamine sulfate | 0.1 | – | 0.05 | 0.05 | 0.05 | 0.05 | 0.1 | 0.1 | 0.05 | 0.1 | –
